Reference: the supplement of paper PMC10307832

Columns and labels:
Assay in all cases: relative viability (nuclei count vs DMSO), 5 days (fraction); higher = more cells survive
[1] = compound: COc1cc2nc(N3CCCN(C)CC3)nc(NC3CCN(Cc4ccccc4)CC3)c2cc1OC + CC(=O)Nc1cccc(-n2c(=O)n(C3CC3)c(=O)c3c(Nc4ccc(I)cc4F)n(C)c(=O)c(C)c32)c1 [Trametinib] (partner 0.02 µM)
How it was run: (§1)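 Nuclei were stained with Hoechst during a one-step fixation (final 0.05% Triton X-100, 1% formaldehyde, 1 ug/ml Hoechst) carried out 5 days after dosing, then counted on 4× images. The cells, lung cancer lines in 1536-well plates, had been dosed by pin tool the day after seeding with one drug alone or a fixed anchor-drug dose plus five library-drug doses (not always all listed) in √10 steps. Relative viability is the nuclei count in treated wells divided by that in vehicle wells, and each value is the median of duplicate plates.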

[2] = compound: COc1cc2nc(N3CCCN(C)CC3)nc(NC3CCN(Cc4ccccc4)CC3)c2cc1OC + CC(=O)c1c(C)c2cnc(Nc3ccc(N4CCNCC4)cn3)nc2n(C2CCCC2)c1=O [Palbociclib] (partner 0.5 µM)
How it was run: as §1

[3] = compound: COc1cc2nc(N3CCCN(C)CC3)nc(NC3CCN(Cc4ccccc4)CC3)c2cc1OC + CC1(C)CCC(c2ccc(Cl)cc2)=C(CN2CCN(c3ccc(C(=O)NS(=O)(=O)c4ccc(N[C@H](CCN5CCOCC5)CSc5ccccc5)c(S(=O)(=O)C(F)(F)F)c4)cc3)CC2)C1 [Navitoclax] (partner 0.5 µM)
How it was run: as §1

[4] = compound: COc1cc2nc(N3CCCN(C)CC3)nc(NC3CCN(Cc4ccccc4)CC3)c2cc1OC + C[C@]1(O)C[C@@H](c2nc(-c3ccc4ccc(-c5ccccc5)nc4c3)c3c(N)nccn32)C1 [Linsitinib] (partner 1 µM)
How it was run: as §1

[5] = compound: COc1cc2nc(N3CCCN(C)CC3)nc(NC3CCN(Cc4ccccc4)CC3)c2cc1OC + Cc1nc(Nc2ncc(C(=O)Nc3c(C)cccc3Cl)s2)cc(N2CCN(CCO)CC2)n1 [Dasatinib] (partner 0.075 µM)
How it was run: as §1

Cell Line | relative viability ([1]; first compound 0.2 µM) | relative viability ([1]; first compound 0.6325 µM) | relative viability ([1]; first compound 2 µM) | relative viability ([1]; first compound 6.325 µM) | relative viability ([2]; first compound 0.2 µM) | relative viability ([2]; first compound 0.6325 µM) | relative viability ([2]; first compound 2 µM) | relative viability ([2]; first compound 6.325 µM) | relative viability ([3]; first compound 0.2 µM) | relative viability ([3]; first compound 0.6325 µM) | relative viability ([3]; first compound 2 µM) | relative viability ([3]; first compound 6.325 µM) | relative viability ([4]; first compound 0.2 µM) | relative viability ([4]; first compound 0.6325 µM) | relative viability ([4]; first compound 2 µM) | relative viability ([4]; first compound 6.325 µM) | relative viability ([5]; first compound 0.2 µM) | relative viability ([5]; first compound 0.6325 µM) | relative viability ([5]; first compound 2 µM) | relative viability ([5]; first compound 6.325 µM)
NCI-H727 | 0.425 | 0.368 | 0.373 | 0.361 | 0.617 | 0.656 | 0.571 | 0.632 | 0.495 | 0.517 | 0.381 | 0.225 | 0.316 | 0.277 | 0.369 | 0.221 | 0.302 | 0.461 | 0.452 | 0.322
NCI-H838 | 0.536 | 0.556 | 0.532 | 0.391 | 0.185 | 0.229 | 0.213 | 0.212 | 1.17 | 1.13 | 1.27 | 1.08 | 1.07 | 0.936 | 1.11 | 0.85 | 0.316 | 0.319 | 0.33 | 0.237
NCI-H1355 | 0.419 | 0.458 | 0.433 | 0.385 | 0.404 | 0.379 | 0.423 | 0.386 | 0.918 | 0.947 | 1.01 | 0.921 | 0.881 | 0.784 | 0.831 | 0.808 | 0.761 | 0.777 | 0.787 | 0.783
NCI-H1395 | 1.01 | 1.03 | 1.13 | 0.806 | 0.642 | 0.605 | 0.618 | 0.565 | 1.18 | 1.32 | 1.17 | 1.05 | 1.16 | 1.13 | 0.912 | 1.12 | 0.459 | 0.425 | 0.384 | 0.357
NCI-H1437 | 0.492 | 0.515 | 0.527 | 0.325 | 0.29 | 0.319 | 0.32 | 0.279 | 1.12 | 1.04 | 1.17 | 1.04 | 1.06 | 0.956 | 1.11 | 0.891 | 0.48 | 0.454 | 0.492 | 0.384
NCI-H1651 | 0.828 | 0.815 | 0.888 | 0.848 | 0.518 | 0.5 | 0.515 | 0.522 | 1.14 | 1.02 | 1.42 | 1.03 | 1.02 | 0.903 | 1.09 | 0.893 | 0.383 | 0.523 | 0.47 | 0.413
NCI-H1666 | 0.821 | 0.781 | 0.774 | 0.799 | 0.644 | 0.633 | 0.648 | 0.633 | 0.934 | 1.16 | 1.03 | 0.642 | 0.866 | 0.919 | 0.783 | 0.675 | 0.819 | 0.847 | 0.788 | 0.718
NCI-H1734 | 0.657 | 0.697 | 0.738 | 0.552 | 0.375 | 0.367 | 0.292 | 0.38 | 0.883 | 0.757 | 0.83 | 0.599 | 0.964 | 0.811 | 0.832 | 0.83 | 0.524 | 0.37 | 0.46 | 0.416
NCI-H1755 | 0.797 | 0.75 | 0.713 | 0.746 | 0.446 | 0.452 | 0.393 | 0.399 | 0.995 | 0.972 | 0.951 | 0.968 | 0.974 | 0.982 | 0.946 | 0.932 | 0.436 | 0.395 | 0.416 | 0.423
NCI-H1792 | 0.435 | 0.47 | 0.466 | 0.399 | 0.637 | 0.654 | 0.609 | 0.685 | 0.665 | 0.639 | 0.66 | 0.629 | 0.61 | 0.512 | 0.496 | 0.598 | 0.89 | 0.781 | 0.824 | 0.816
NCI-H1793 | 0.374 | 0.39 | 0.412 | 0.373 | 0.32 | 0.312 | 0.316 | 0.292 | 0.49 | 0.489 | 0.492 | 0.457 | 0.912 | 1.02 | 1.21 | 0.959 | 0.378 | 0.412 | 0.375 | 0.375
NCI-H1915 | 0.309 | 0.295 | 0.309 | 0.277 | 0.527 | 0.504 | 0.607 | 0.461 | 0.805 | 0.772 | 0.843 | 0.797 | 1.05 | 1.08 | 1.12 | 1.08 | 0.35 | 0.355 | 0.338 | 0.349
NCI-H1944 | 0.437 | 0.423 | 0.379 | 0.414 | 0.327 | 0.349 | 0.326 | 0.321 | 1.1 | 1.02 |  | 0.982 | 1.11 | 1.23 |  | 1.13 | 0.199 | 0.245 | 0.204 | 0.232
